Patent US7968548B2, “Melanocortin receptor-specific piperazine compounds with diamine groups” (Palatin Technologies, Inc., priority 2005, dated 2011)
“And” between values parts separate entries of the source, which are not always exact repeats. Equal entries are not always repeated.

Tests used:
[1] = biological target: T1, MC5-R (Homo sapiens, UniProt P33032); experiment: Competitive inhibition binding assay using [I125]-NDP-α-MSH, HEK-293 membranes, recombinant hMC5-R; settings: for inhibition at 1 µM: 1 μM compound
T1 construct: expressed in transfected cells; host or cells: HEK-293
Method: (§1) A competitive inhibition binding assay was performed using membrane homogenates prepared from HEK-293 cells that express recombinant hMC4-R, hMC3-R, or hMC5-R, and from B-16 mouse melanoma cells (containing endogenous MC1-R). In some instances, HEK-293 cells that express recombinant hMC1-R were employed. In the examples that follow, all MC3-R, MC4-R and MC5-R values are for human recombinant receptors. MC1-R values are for B-16 mouse melanoma cells, unless the heading is “hMC1-R”, in which case the value is for human recombinant MC1-R. Assays were performed in 96 well GF/B Millipore multiscreen filtration plates (MAFB NOB10) pre-coated with 0.5% bovine serum albumin (Fraction V). […] After incubation for 60 minutes at 37° C., the assay mixture was filtered and the membranes washed three times with ice-cold buffer. Filters were dried and counted in a gamma counter for bound radioactivity. […] Maximal specific binding (100%) was defined as the difference in radioactivity (cpm) bound to cell membranes in the absence and presence of 1 μM NDP-α-MSH. […] Each assay was conducted in triplicate and the actual mean values are described, with results less than 0% reported as 0%. Ki values for test compounds were determined using Graph-Pad Prism® curve-fitting software.

[2] = biological target: T2, hMC1-R (Homo sapiens, UniProt Q01726); experiment: Competitive inhibition binding assay using [I125]-NDP-α-MSH, HEK-293 membranes, recombinant hMC1-R; settings: human recombinant MC1-R; for inhibition at 1 µM: 1 μM compound
T2 construct: expressed in transfected cells; host or cells: HEK-293
Method: as §1

[3] = biological target: MC4-R (Homo sapiens, UniProt P32245); experiment: Competitive inhibition binding assay using [I125]-NDP-α-MSH, HEK-293 membranes, recombinant hMC4-R; parameters: expressed in transfected cells; host or cells: HEK-293; settings: for inhibition at 1 µM: 1 μM compound
Method: as §1

[4] = biological target: T3, MC3-R (Homo sapiens, UniProt P41968); experiment: Competitive inhibition binding assay using [I125]-NDP-α-MSH, HEK-293 membranes, recombinant hMC3-R; settings: for inhibition at 1 µM: 1 μM compound
T3 construct: expressed in transfected cells; host or cells: HEK-293
Method: as §1

T1 sequence (P33032 whole entry): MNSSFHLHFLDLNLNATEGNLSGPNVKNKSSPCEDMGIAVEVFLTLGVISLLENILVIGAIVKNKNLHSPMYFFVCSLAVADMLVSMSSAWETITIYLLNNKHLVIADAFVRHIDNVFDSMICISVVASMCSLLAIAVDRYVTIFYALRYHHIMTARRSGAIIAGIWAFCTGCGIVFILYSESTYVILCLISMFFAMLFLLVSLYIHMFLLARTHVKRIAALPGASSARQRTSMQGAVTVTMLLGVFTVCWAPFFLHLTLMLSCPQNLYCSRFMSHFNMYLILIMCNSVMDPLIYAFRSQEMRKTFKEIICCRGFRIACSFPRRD
T2 sequence (Q01726 whole entry): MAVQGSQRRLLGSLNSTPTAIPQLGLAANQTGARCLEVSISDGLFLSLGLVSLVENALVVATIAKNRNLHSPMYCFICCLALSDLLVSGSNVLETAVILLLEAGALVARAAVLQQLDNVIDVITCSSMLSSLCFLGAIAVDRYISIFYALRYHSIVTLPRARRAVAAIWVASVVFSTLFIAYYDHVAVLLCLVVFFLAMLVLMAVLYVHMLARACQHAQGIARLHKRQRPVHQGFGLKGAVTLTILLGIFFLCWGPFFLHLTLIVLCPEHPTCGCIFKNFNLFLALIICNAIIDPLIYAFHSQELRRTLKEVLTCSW
T3 sequence (P41968 whole entry): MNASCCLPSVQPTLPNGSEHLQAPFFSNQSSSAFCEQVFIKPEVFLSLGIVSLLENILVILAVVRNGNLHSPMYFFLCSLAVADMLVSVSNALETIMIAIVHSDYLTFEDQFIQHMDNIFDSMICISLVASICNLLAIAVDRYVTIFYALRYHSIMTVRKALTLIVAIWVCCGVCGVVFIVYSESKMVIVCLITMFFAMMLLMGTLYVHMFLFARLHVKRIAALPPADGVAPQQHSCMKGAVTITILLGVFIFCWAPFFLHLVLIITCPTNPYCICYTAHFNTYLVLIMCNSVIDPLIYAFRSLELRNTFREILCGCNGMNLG
MC4-R, sequence (P32245 whole entry): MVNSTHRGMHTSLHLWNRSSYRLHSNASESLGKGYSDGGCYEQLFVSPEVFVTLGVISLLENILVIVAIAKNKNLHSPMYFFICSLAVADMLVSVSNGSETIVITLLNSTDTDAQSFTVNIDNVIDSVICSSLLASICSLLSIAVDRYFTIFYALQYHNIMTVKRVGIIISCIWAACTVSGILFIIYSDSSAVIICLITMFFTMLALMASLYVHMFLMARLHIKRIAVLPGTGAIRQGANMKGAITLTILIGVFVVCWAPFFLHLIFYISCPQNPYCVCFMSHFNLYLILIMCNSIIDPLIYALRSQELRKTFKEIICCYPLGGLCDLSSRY

Row | SMILES | inhibition at 1 µM [1] [%] | inhibition at 1 µM [2] [%] | Ki [3] | inhibition at 1 µM [3] [%] | inhibition at 1 µM [4] [%] | Ki [1] [nM] | Ki [2] [nM] | Ki [4] [nM]
1 | Cc1ccc(C[C@@H](N)C(=O)N2C[C@H](CCCNCCN)N(C(=O)[C@H](N)Cc3ccc(C)cc3C)C[C@H]2CC2CCCCC2)c(C)c1 [Example 14, (R)-2-Amino-1-{(2R,5S)-4-[(R)-2-amino-3-(2,4-dimethyl-phenyl)-propionyl]-5-[3-(2-amino-ethylamino)-propyl]-2-cyclohexylmethyl-piperazin-1-yl}-3-(2,4-dimethyl-phenyl)-propan-1-one] | 43 | 35 | 81 nM | 83 | 22 |  |  | 
2 | Cc1ccc(C[C@@H](N)C(=O)N2C[C@H](CCCNCCN)N(C(=O)[C@H](N)Cc3ccc(C)cc3C)C[C@H]2CC(C)C)c(C)c1 [Example 17, (R)-2-Amino-1-{(2S,5R)-4-[(R)-2-amino-3-(2,4-dimethyl-phenyl)-propionyl]-2-[3-(2-amino-ethylamino)-propyl]-5-isobutyl-piperazin-1-yl}-3-(2,4-dimethyl-phenyl)-propan-1-one] | 38 | 22 | 60 nM | 83 | 14 |  |  | 
3 | Cc1ccc(C[C@@H](N)CN2C[C@@H](C)N(C(=O)Cc3ccc4ccccc4c3)C[C@@H]2Cc2ccc(NCCN)cc2)c(C)c1 [Example 11, 1-{(2R,5S)-4-[(R)-2-Amino-3-(2,4-dimethyl-phenyl)-propyl]-5-[4-(2-amino-ethylamino)-benzyl]-2-methyl-piperazin-1-yl}-2-naphthalen-2-yl-ethanone] | 36 | 3 |  | 39 | 29 |  |  | 
4 | NCCNCCC[C@H]1CN(C(=O)[C@H](N)Cc2ccc3ccccc3c2)[C@H](CC2CCCCC2)CN1C(=O)[C@H](N)Cc1ccc2ccccc2c1 [Example 16, (R)-2-Amino-1-[(2R,5S)-5-[3-(2-amino-ethylamino)-propyl]-4-((R)-2-amino-3-naphthalen-2-yl-propionyl)-2-cyclohexylmethyl-piperazin-1-yl]-3-naphthalen-2-yl-propan-1-one] |  |  | 99 nM and 81 nM |  |  | 30 | 22 | 36
5 | Cc1ccc(C[C@@H](N)C(=O)N2C[C@H](CCCCNCCN)N(C(=O)[C@H](N)Cc3ccc(C)cc3C)C[C@H]2CC(C)C)c(C)c1 [Example 21, (R)-2-Amino-1-{(2R,5S)-4-[(R)-2-amino-3-(2,4-dimethyl-phenyl)-propionyl]-5[4-(2-amino-ethylamino)-butyl]-2-isobutyl-piperazin-1-yl}-3-(2,4-dimethyl-phenyl)-propan-1-one] | 51 | 39 | 83 nM | 95 | 55 | 450 | 567 | 1050
6 | NCCNCCC[C@H]1CN(C(=O)[C@H](N)Cc2ccc(Cl)cc2Cl)[C@H](CC2CCCCC2)CN1C(=O)[C@H](N)Cc1ccc(Cl)cc1Cl [Example 15, (R)-2-Amino-1-{(2R,5S)-4-[(R)-2-amino-3-(2,4-dichloro-phenyl)-propionyl]-5-[3-(2-amino-ethylamino)-propyl]-2-cyclohexylmethyl-piperazin-1-yl}-3-(2,4-dichloro-phenyl)-propan-1-one] | 31 | 27 | 74 nM | 83 | 36 |  |  | 
7 | NCCNCCCC[C@H]1CN(C(=O)[C@H](N)Cc2ccc(Cl)cc2Cl)[C@H](CC2CCCCC2)CN1C(=O)[C@H](N)Cc1ccc(Cl)cc1Cl [Example 24, (R)-2-Amino-1-{(2R,5S)-4-[(R)-2-amino-3-(2,4-dichloro-phenyl)-propionyl]-5-[4-(2-amino-ethylamino)-butyl]-2-cyclohexylmethyl-piperazin-1-yl}-3-(2,4-dichloro-phenyl)-propan-1-one] |  |  | 17 nM |  |  | 139 | 270 | 443
8 | CC(C)C[C@@H]1CN(C(=O)[C@H](N)Cc2ccc(Cl)cc2Cl)[C@@H](CCCCNCCN)CN1C(=O)[C@H](N)Cc1ccc(Cl)cc1Cl [Example 19, (R)-2-Amino-1-{(2R,5S)-4-[(R)-2-amino-3-(2,4-dichloro-phenyl)-propionyl]-5-[4-(2-amino-ethylamino)-butyl]-2-isobutyl-piperazin-1-yl}-3-(2,4-dichloro-phenyl)-propan-1-one] | 47 | 36 | 36 nM | 97 | 59 | 296 | 754 | 327

Results, then the molecule that gave them:

Row | inhibition at 1 µM [1] [%] | inhibition at 1 µM [2] [%] | Ki [3] | inhibition at 1 µM [3] [%] | inhibition at 1 µM [4] [%] | Ki [1] [nM] | Ki [2] [nM] | Ki [4] [nM] | SMILES
9 | 84 | 77 | 19 nM | 96 | 94 |  |  |  | C[C@@H]1CN(C(=O)[C@H](N)Cc2ccc(Cl)c(Cl)c2)[C@@H](CCCNCCN)CN1C(=O)[C@H](N)Cc1ccc(Cl)c(Cl)c1 [Example 28, (R)-2-Amino-1-{(2R,5S)-4-[(R)-2-amino-3-(3,4-dichloro-phenyl)-propionyl]-5-[3-(2-amino-ethylamino)-propyl]-2-methyl-piperazin-1-yl}-3-(3,4-dichloro-phenyl)-propan-1-one]
10 | 84 | 37 |  | 91 | 65 |  |  |  | CC(C)C[C@@H]1CN(C[C@H](N)Cc2ccc(Cl)cc2Cl)[C@@H](CCCNCCCCN)CN1C(=O)Cc1ccc2ccccc2c1 [Example 30, 1-{(2R,5S)-5-[3-(4-Amino-butylamino)-propyl]-4-[(R)-2-amino-3-(2,4-dichloro-phenyl)-propyl]-2-isobutyl-piperazin-1-yl}-2-naphthalen-2-yl-ethanone]
11 | 87 | 36 |  | 91 | 59 |  |  |  | CC(C)C[C@@H]1CN(C[C@H](N)Cc2ccc(Cl)cc2Cl)[C@@H](CCCNCCCCCN)CN1C(=O)Cc1ccc2ccccc2c1 [Example 31, 1-{(2R,5S)-4-[(R)-2-Amino-3-(2,4-dichloro-phenyl)-propyl]-5-[3-(5-amino-pentylamino)-propyl]-2-isobutyl-piperazin-1-yl}-2-naphthalen-2-yl-ethanone]
12 | 76 | 53 | 64 nM | 96 | 57 |  |  |  | Cc1ccc(C[C@@H](N)C(=O)N2C[C@@H](C)N(C(=O)[C@H](N)Cc3ccc(C)cc3C)C[C@@H]2CCCNCCN)c(C)c1 [Example 26, (R)-2-Amino-1-{(2R,5S)-4-[(R)-2-amino-3-(2,4-dimethyl-phenyl)-propionyl]-5-[3-(2-amino-ethylamino)-propyl]-2-methyl-piperazin-1-yl}-3-(2,4-dimethyl-phenyl)-propan-1-one]
13 | 84 | 33 |  | 91 | 65 |  |  |  | CC(C)C[C@@H]1CN(C[C@H](N)Cc2ccc(Cl)cc2Cl)[C@@H](CCCNCCCN)CN1C(=O)Cc1ccc2ccccc2c1 [Example 29, 1-{(2R,5S)-4-[(R)-2-Amino-3-(2,4-dichloro-phenyl)-propyl]-5-[3-(3-amino-propylamino)-propyl]-2-isobutyl-piperazin-1-yl}-2-naphthalen-2-yl-ethanone]
14 | 65 | 25 |  | 91 | 43 |  |  |  | CC(C)C[C@@H]1CN(C[C@@H](Cc2ccc(Cl)cc2Cl)N(C)C)[C@@H](CCCN(C)CCN)CN1C(=O)Cc1ccc2ccccc2c1 [Example 32, 1-{(2R,5S)-5-{3-[(2-Amino-ethyl)-methyl-amino]-propyl}-4-[(R)-3-(2,4-dichloro-phenyl)-2-dimethylamino-propyl]-2-isobutyl-piperazin-1-yl}-2-naphthalen-2-yl-ethanone]
15 | 93 | 67 | 41 nM | 98 | 89 |  |  |  | C[C@@H]1CN(C(=O)[C@H](N)Cc2ccc(Cl)cc2Cl)[C@@H](CCCNCCN)CN1C(=O)[C@H](N)Cc1ccc(Cl)cc1Cl [Example 25, (R)-2-Amino-1-{(2R,5S)-4-[(R)-2-amino-3-(2,4-dichloro-phenyl)-propionyl]-5-[3-(2-amino-ethylamino)-propyl]-2-methyl-piperazin-1-yl}-3-(2,4-dichloro-phenyl)-propan-1-one]
16 | 73 | 62 | 42 nM | 93 | 79 |  |  |  | C[C@@H]1CN(C(=O)[C@H](N)Cc2ccc3ccccc3c2)[C@@H](CCCNCCN)CN1C(=O)[C@H](N)Cc1ccc2ccccc2c1 [Example 27, (R)-2-Amino-1-[(2R,5S)-5-[3-(2-amino-ethylamino)-propyl]-4-((R)-2-amino-3-naphthalen-2-yl-propionyl)-2-methyl-piperazin-1-yl]-3-naphthalen-2-yl-propan-1-one]
